Test systems include Hs-578T; U-251; NCI-H522; K562; HCT-15; SK-OV-3; MDA-MB-231; RXF 393; OVCAR-4; SF-268; SNB-75; TK-10; NCI-H23; MDA-MB-435; T47D; OVCAR-8; OVCAR-3; HL-60; SK-MEL-2.
Experiment in all cases: NCI-60 cell line screen, 48 h

SMILES strings stand for the structures.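 Interpolation was linear, between the two tested concentrations surrounding the appropriate level; five concentrations were tested over 48 hours in 96-well plates. GI50 is the concentration that inhibits growth by half.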 Activity calls are given as the source filed them. Rule as the data show it: active = GI50 up to about 1.1 µM and inactive = higher.

Take `CS(=O)(=O)OCC(CCl)(CCl)CCl`: the GI50 in the assay with Hs-578T is > 100 µM (inactive); in the assay with U-251, > 100 µM (inactive); in the assay with NCI-H522, > 100 µM (inactive); with K562 it was > 100 µM (inactive); in the assay on HCT-15, more than 100 µM; in the assay with SK-OV-3 it was > 100 µM (inactive). For the same compound, the GI50 in the assay with MDA-MB-231, in the assay with RXF 393, in the assay on OVCAR-4, in the assay with SF-268, in the assay on SNB-75 and in the assay on TK-10 was > 100 µM (inactive) throughout. The GI50 in the assay with NCI-H23, with MDA-MB-435, with T47D, with OVCAR-8 and with OVCAR-3 was > 100 µM (inactive) in each case.
For `CN(C)Cc1cc(/C=C/C(=O)c2ccc(Cl)c(Cl)c2)cc(CN(C)C)c1O`, the GI50 with K562 was 25.2 µM (inactive); in the assay on SK-OV-3, 21.8 µM (inactive); in the assay with MDA-MB-231 it was 7.05 µM (inactive); in the assay with RXF 393 it was 11 µM (inactive); with HL-60, 3.9 µM (inactive); in the assay with SF-268, 10.8 µM (inactive). Moreover, the GI50 in the assay on SNB-75 is 9.12 µM (inactive); in the assay on TK-10, 12.4 µM (inactive); with SK-MEL-2, 14 µM (inactive); in the assay on MDA-MB-435 it was 5.32 µM (inactive); in the assay with T47D it was 11 µM (inactive); in the assay with OVCAR-8, 13.6 µM (inactive). Further, the GI50 with OVCAR-3 is 10.3 µM (inactive).
For `C=C1CCCC(C)(C)[C@@H]1CC/C(C)=C/Cn1c2cccc(=O)c-2nc2ccccc21`, the GI50 in the assay on U-251 was 1.53 µM (inactive); in the assay with K562, 1.07 µM (active); in the assay on HCT-15, 1.18 µM; in the assay with SK-OV-3, 4.15 µM (inactive); in the assay with HL-60, 0.127 µM (active); with OVCAR-4 it was 1.81 µM (inactive). The GI50 is 1.39 µM (inactive) in the assay on SF-268; 1.41 µM (inactive) in the assay on SNB-75; 1.52 µM (inactive) in the assay on NCI-H23; 2.37 µM (inactive) in the assay on SK-MEL-2; 1.55 µM (inactive) in the assay on OVCAR-8; 3.18 µM (inactive) in the assay on OVCAR-3.
Regarding `O=C1C(Cl)N(c2c(Cl)cccc2Cl)C1c1c[nH]c2ccccc12` (configuration not stated), the GI50 in the assay on U-251, in the assay on NCI-H522, in the assay with K562, with SK-OV-3, with RXF 393 and in the assay with HL-60 was > 100 µM (inactive) throughout. Also, the GI50 in the assay on OVCAR-4, with SF-268, in the assay with SNB-75, with TK-10, with NCI-H23 and in the assay on SK-MEL-2 was > 100 µM (inactive) throughout. The GI50 in the assay with OVCAR-8 and in the assay with OVCAR-3 was > 100 µM (inactive) in each case.
Consider `O=c1c(-c2ccccc2)c(SCCCN2CCN(c3cccc(Cl)c3)CC2)n(-c2ccccc2)c(=S)n1-c1ccccc1`, for which the GI50 with Hs-578T is > 100 µM (inactive); in the assay on U-251, > 100 µM (inactive); in the assay with NCI-H522, > 100 µM (inactive); in the assay on K562, > 100 µM (inactive); in the assay on HCT-15, more than 100 µM; in the assay with SK-OV-3 it was > 100 µM (inactive). Moreover, the GI50 is > 100 µM (inactive) in the assay on MDA-MB-231; > 100 µM (inactive) in the assay on RXF 393; > 100 µM (inactive) with HL-60; 23.3 µM (inactive) in the assay on OVCAR-4; > 100 µM (inactive) in the assay on SNB-75; > 100 µM (inactive) in the assay with TK-10. The GI50 was > 100 µM (inactive) with NCI-H23; > 100 µM (inactive) with SK-MEL-2; 16.8 µM (inactive) in the assay on MDA-MB-435; > 100 µM (inactive) with OVCAR-8; > 100 µM (inactive) with OVCAR-3.
For `CCCNC1=Nc2ccccc2N(Cc2ccccc2)CC1`, the GI50 in the assay with Hs-578T was 14.9 µM (inactive); in the assay on U-251 it was 18 µM (inactive); in the assay with NCI-H522, 13.9 µM (inactive); in the assay with K562, 5.57 µM (inactive); in the assay on HCT-15 it was 20.7 µM; in the assay with SK-OV-3, 28.2 µM (inactive). The GI50 in the assay with MDA-MB-231 is 20.3 µM (inactive); in the assay on RXF 393, 11.6 µM (inactive); with HL-60, 12.9 µM (inactive); in the assay with OVCAR-4, 35 µM (inactive); with SF-268, 15.7 µM (inactive); with SNB-75, 5.62 µM (inactive). Besides, the GI50 in the assay on TK-10 is 27.8 µM (inactive); in the assay with NCI-H23, 16.5 µM (inactive); in the assay on SK-MEL-2 it was 17 µM (inactive); in the assay with MDA-MB-435, 19.1 µM (inactive); in the assay on OVCAR-8, 14.9 µM (inactive); with OVCAR-3, 32.4 µM (inactive).
`Cc1cc(C)c(/C=C(\C(=C/c2c(C)cc(C)cc2C)[N+](=O)[O-])[N+](=O)[O-])c(C)c1`: the GI50 in the assay on U-251 was > 100 µM (inactive); in the assay with K562, > 100 µM (inactive); in the assay with SK-OV-3, > 100 µM (inactive); in the assay with MDA-MB-231, > 100 µM (inactive); with RXF 393, 20.6 µM (inactive); in the assay on OVCAR-4, > 100 µM (inactive). For the same compound, the GI50 in the assay on SNB-75 is > 100 µM (inactive); with TK-10, > 100 µM (inactive); in the assay on NCI-H23, > 100 µM (inactive); in the assay on SK-MEL-2, > 100 µM (inactive); in the assay on MDA-MB-435 it was > 100 µM (inactive); in the assay with T47D, 78.9 µM (inactive). The GI50 with OVCAR-3 is > 100 µM (inactive).
Consider `CCOC(=O)CCC(NC(=O)OCc1ccccc1)C(=O)NC(CCC(=O)OCC)C(=O)NC(CCC(=O)OCC)C(=O)NC(CCC(=O)OCC)C(=O)NC(CCC(=O)OCC)C(=O)NC(CCC(=O)OCC)C(=O)NC(CCC(=O)OCC)C(=O)OCC` (configuration not stated), for which the GI50 in the assay on U-251 was > 100 µM (inactive); in the assay on NCI-H522, 43.5 µM (inactive); in the assay with K562, > 100 µM (inactive); in the assay on HCT-15, more than 100 µM; with MDA-MB-231, > 100 µM (inactive); with HL-60, > 100 µM (inactive). Moreover, the GI50 with OVCAR-4 is > 100 µM (inactive); in the assay on SF-268, > 100 µM (inactive); in the assay with SNB-75, 40.5 µM (inactive); in the assay with TK-10, > 100 µM (inactive); in the assay with NCI-H23, > 100 µM (inactive); with SK-MEL-2, > 100 µM (inactive). Also, the GI50 is > 100 µM (inactive) in the assay on MDA-MB-435, > 100 µM (inactive) with T47D, > 100 µM (inactive) with OVCAR-8 and 86.9 µM (inactive) in the assay on OVCAR-3.
For the compound `CN(C)S(=O)(=O)n1cnc(CO)c1`, the GI50 is > 100 µM (inactive) in the assay on U-251; > 100 µM (inactive) in the assay with NCI-H522; > 100 µM (inactive) with K562; more than 100 µM in the assay with HCT-15; > 100 µM (inactive) with SK-OV-3; > 100 µM (inactive) with MDA-MB-231. For the same compound, the GI50 with RXF 393, in the assay with OVCAR-4, in the assay with SF-268, in the assay with SNB-75, in the assay on TK-10 and in the assay with NCI-H23 was > 100 µM (inactive) each time. Moreover, the GI50 in the assay on SK-MEL-2, in the assay on MDA-MB-435, in the assay on T47D and in the assay with OVCAR-3 was > 100 µM (inactive) in each case.
With `CC1=C(C(=O)OCCO[N+](=O)[O-])C(c2ccccc2C(F)(F)F)C(C(=O)OC(C)C)=C(C)N1` (configuration not stated), the GI50 in the assay on U-251 is 14.6 µM (inactive); with NCI-H522, 16.9 µM (inactive); in the assay on K562, 3.94 µM (inactive); in the assay on HCT-15, 12.2 µM; with SK-OV-3, 39.6 µM (inactive); in the assay on MDA-MB-231, 10.9 µM (inactive). For the same compound, the GI50 with RXF 393 was 10.3 µM (inactive); in the assay on HL-60, 15.9 µM (inactive); in the assay on OVCAR-4, 12.7 µM (inactive); with SF-268, 16.3 µM (inactive); in the assay on TK-10, 18.1 µM (inactive); in the assay on NCI-H23 it was 19.6 µM (inactive). Moreover, the GI50 was 12.8 µM (inactive) in the assay with SK-MEL-2; 16.6 µM (inactive) in the assay with MDA-MB-435; 19.8 µM (inactive) in the assay on T47D; 17.7 µM (inactive) with OVCAR-8; 10.5 µM (inactive) in the assay on OVCAR-3.
As to `O=c1[nH]nc(NNc2ccccc2)c2nnn(C3CCCCC3)c12`, the GI50 in the assay on U-251 is > 100 µM (inactive); in the assay with K562, > 100 µM (inactive); in the assay with HCT-15, 96.2 µM; with MDA-MB-231 it was > 100 µM (inactive); in the assay with HL-60 it was > 100 µM (inactive); with OVCAR-4 it was > 100 µM (inactive). Besides, the GI50 is > 100 µM (inactive) in the assay with TK-10; > 100 µM (inactive) in the assay with NCI-H23; > 100 µM (inactive) in the assay on SK-MEL-2; > 100 µM (inactive) in the assay with MDA-MB-435; 88.1 µM (inactive) in the assay with OVCAR-8; > 100 µM (inactive) with OVCAR-3.
Turning to `C/C(=C/C(=O)N(C)c1ccccc1Cl)O[Si](C(C)C)(C(C)C)C(C)C`, the GI50 in the assay with U-251 is 20 µM (inactive); with NCI-H522, 15.4 µM (inactive); with HCT-15 it was 18.2 µM; in the assay on SK-OV-3 it was 34.2 µM (inactive); with MDA-MB-231, 22.4 µM (inactive); in the assay on RXF 393, 17.3 µM (inactive). Further, the GI50 was 61.2 µM (inactive) with OVCAR-4; 21.8 µM (inactive) in the assay with SF-268; 29.4 µM (inactive) with SNB-75; 33.5 µM (inactive) in the assay on TK-10; 24.7 µM (inactive) with NCI-H23; 32.1 µM (inactive) with MDA-MB-435. For the same compound, the figures for the GI50 in the assay on T47D, with OVCAR-8 and with OVCAR-3 were 31.3 µM (inactive), 20.7 µM (inactive) and 18.2 µM (inactive), respectively.
For `COC(=O)c1cc(CNCCc2c[nH]c3ccccc23)on1`, the GI50 with Hs-578T was > 100 µM (inactive); in the assay with U-251, > 100 µM (inactive); with NCI-H522, 29.6 µM (inactive); in the assay with K562, > 100 µM (inactive); with HCT-15, more than 100 µM; in the assay with SK-OV-3, > 100 µM (inactive). The GI50 is > 66.8 µM (inactive) in the assay with RXF 393; > 100 µM (inactive) in the assay on HL-60; > 33.8 µM (inactive) with OVCAR-4; > 100 µM (inactive) in the assay with SF-268; > 65 µM (inactive) with SNB-75; > 100 µM (inactive) in the assay on TK-10. Further, the GI50 in the assay on NCI-H23, in the assay with SK-MEL-2, in the assay on T47D, in the assay with OVCAR-8 and in the assay on OVCAR-3 was > 100 µM (inactive) throughout.

The values are drawn from ChEMBL document CHEMBL1201862, “PubChem BioAssay data set” (2004).
